Here are results for nine compounds from BindingDB's records for doi:10.1111/j.1747-0285.2011.01215.x (Yeditepe University, 2011).

Sequence of Sigma non-opioid intracellular receptor 1 (Q60492 whole entry): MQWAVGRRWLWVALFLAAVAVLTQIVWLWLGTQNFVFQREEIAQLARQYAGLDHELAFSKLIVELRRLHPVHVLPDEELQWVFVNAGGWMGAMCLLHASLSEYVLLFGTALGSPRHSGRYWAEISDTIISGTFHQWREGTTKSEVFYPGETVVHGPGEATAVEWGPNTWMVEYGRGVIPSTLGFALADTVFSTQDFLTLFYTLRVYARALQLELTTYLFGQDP

The experiment has as its target Sigma non-opioid intracellular receptor 1 (Cavia porcellus, UniProt Q60492). Nature of the experiment: Sigma 1 Assay. Conditions: pH 7.4; 37 °C. The procedure: The test was performed with the radioligand [3H]-(+)-pentazocine (42.5 Ci/mmol) from Perkin Elmer.
In the case of `Fc1ccc(N2CCN(Cc3cn(CN4CCN(c5ccc(F)cc5)CC4)c4ccccc34)CC2)cc1` [1,3-di-{[4-(4-fluorophenyl)piperazin1-yl]methyl}-1 H-indole, 2a], the affinity corresponds to a Ki of 2690 nM.

On to `Fc1ccc(N2CCN(CCCn3ccc4ccccc43)CC2)cc1` [1-{3-[4-(substitutedphenyl)piperazin1-yl]propyl}-1 H-indole, 4a], for which the Ki (usually the dissociation constant of the complex between target and ligand, obtained from inhibition or displacement) is 456 nM.

In turn, `Fc1ccccc1N1CCN(CCCn2ccc3ccccc32)CC1` [1-{3-[4-(substitutedphenyl)piperazin1-yl]propyl}-1 H-indole, 4b] displayed a Ki of 264 nM.

`c1ccc(N2CCN(CCCn3ccc4ccccc43)CC2)cc1` [1-{3-[4-(substitutedphenyl)piperazin1-yl]propyl}-1 H-indole, 4c] registered a Ki of 1490 nM.

Compound `Cc1cn(CN2CCN(c3ccc(F)cc3)CC2)c2ccccc12` [1-{[4-(substitutedphenyl/phenylethyl)piperazin1-yl]methyl}-3-methyl-1 H-indole, 3a] displayed a Ki of 1000 nM.

Take `Cc1cn(CN2CCN(CCc3ccccc3)CC2)c2ccccc12` [1-{[4-(substitutedphenyl/phenylethyl)piperazin1-yl]methyl}-3-methyl-1 H-indole, 3b]: affinity was put at a Ki of 14.2 nM. This Ki lies about 70-fold lower than the previous one.

`Fc1ccc(N2CCN(Cc3c[nH]c4ccccc34)CC2)cc1` [3-[[4-(4-fluorophenyl)piperazin-1-yl]methyl]-1H-indole]: the Ki worked out at 3640 nM. Compared with the last compound, the Ki is about 260-fold higher.

`Fc1ccc(F)c(CN2CCN(Cc3c[nH]c4ccccc34)CC2)c1` [3-{[4-(substitutedphenyl/benzyl)piperazin1-yl]methyl}-1 H-indole, 1b]: the affinity corresponds to a Ki of 216 nM.

On to `Clc1ccc(CN2CCN(Cc3c[nH]c4ccccc34)CC2)cc1Cl` [3-{[4-(substitutedphenyl/benzyl)piperazin1-yl]methyl}-1 H-indole, 1c], for which the inhibitory constant (Ki) was 126 nM.
